Experiments:
Experiment in all cases: DSF 100 kinase selectivity screen;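 further: compound tested at 20 µM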
Format in all cases: binding
[1] = target: T1, ~100 representative kinases (Homo sapiens, UniProt Q12866); conditions: protein MERTK; average of three replicates
T1 construct: Recombinant protein kinase domains with a concentration of 2 μM
T1 sequence (Q12866 21-999): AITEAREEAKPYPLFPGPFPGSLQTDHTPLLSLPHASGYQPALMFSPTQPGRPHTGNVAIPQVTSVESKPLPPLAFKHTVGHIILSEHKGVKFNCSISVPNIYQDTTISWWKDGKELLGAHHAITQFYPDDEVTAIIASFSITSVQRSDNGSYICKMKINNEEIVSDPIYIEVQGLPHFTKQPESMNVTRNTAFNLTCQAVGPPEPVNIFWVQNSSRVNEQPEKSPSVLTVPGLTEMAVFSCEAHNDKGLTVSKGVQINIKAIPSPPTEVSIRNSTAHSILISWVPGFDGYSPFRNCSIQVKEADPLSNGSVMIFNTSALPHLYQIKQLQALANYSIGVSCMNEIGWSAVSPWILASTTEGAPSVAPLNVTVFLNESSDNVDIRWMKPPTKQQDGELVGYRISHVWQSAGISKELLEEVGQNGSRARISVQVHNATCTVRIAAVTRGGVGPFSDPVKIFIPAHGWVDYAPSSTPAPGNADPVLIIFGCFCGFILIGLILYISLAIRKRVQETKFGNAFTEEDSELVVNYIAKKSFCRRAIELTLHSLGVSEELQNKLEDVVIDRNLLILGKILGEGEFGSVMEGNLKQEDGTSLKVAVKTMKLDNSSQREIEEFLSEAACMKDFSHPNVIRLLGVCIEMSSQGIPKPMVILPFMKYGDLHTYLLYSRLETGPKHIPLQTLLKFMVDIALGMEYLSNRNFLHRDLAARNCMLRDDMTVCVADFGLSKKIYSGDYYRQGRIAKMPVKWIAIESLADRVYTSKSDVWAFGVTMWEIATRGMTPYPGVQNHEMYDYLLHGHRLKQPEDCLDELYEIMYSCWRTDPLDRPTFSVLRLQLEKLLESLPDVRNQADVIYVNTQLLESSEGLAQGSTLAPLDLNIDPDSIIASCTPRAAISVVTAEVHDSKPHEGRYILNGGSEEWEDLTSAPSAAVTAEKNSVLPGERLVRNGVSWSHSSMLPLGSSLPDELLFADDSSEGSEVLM
Procedure, shortened: (§1)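 Each kinase domain, at 2 μM, is mixed with 20 μM test compound and SYPRO Orange in Hepes (20 mM, pH 7.5) with 500 mM NaCl. Temperature is then raised at 3°C/min and fluorescence-monitored unfolding yields the melting temperature change, ΔTm in degrees Celsius.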

[2] = target: T2, ~100 representative kinases (Homo sapiens, UniProt Q9Y243); conditions: Protein AKT3; average of three replicates
T2 construct: Recombinant protein kinase domains with a concentration of 2 μM
Procedure, shortened: as §1

[3] = target: T3, ~100 representative kinases (Homo sapiens, UniProt Q99640); conditions: protein PKMYT1; average of three replicates
T3 construct: Recombinant protein kinase domains with a concentration of 2 μM
T3 sequence (Q99640 1-499): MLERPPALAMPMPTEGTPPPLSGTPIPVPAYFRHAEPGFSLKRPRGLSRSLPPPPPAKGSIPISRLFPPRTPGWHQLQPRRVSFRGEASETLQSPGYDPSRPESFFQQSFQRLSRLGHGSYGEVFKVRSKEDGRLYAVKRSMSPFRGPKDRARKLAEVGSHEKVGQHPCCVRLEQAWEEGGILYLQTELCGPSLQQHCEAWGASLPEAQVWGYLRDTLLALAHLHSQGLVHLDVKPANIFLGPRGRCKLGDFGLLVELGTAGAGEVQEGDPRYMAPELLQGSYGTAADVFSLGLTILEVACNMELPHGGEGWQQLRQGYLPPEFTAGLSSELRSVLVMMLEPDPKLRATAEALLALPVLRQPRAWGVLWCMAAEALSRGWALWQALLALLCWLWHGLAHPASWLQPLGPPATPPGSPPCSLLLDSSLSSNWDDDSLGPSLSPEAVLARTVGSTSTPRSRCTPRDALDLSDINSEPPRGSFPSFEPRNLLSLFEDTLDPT
Procedure, shortened: as §1

[4] = target: T4, ~100 representative kinases (Homo sapiens, UniProt O00444); conditions: protein PLK4; average of three replicates
T4 construct: Recombinant protein kinase domains with a concentration of 2 μM
T4 sequence (O00444 1-970): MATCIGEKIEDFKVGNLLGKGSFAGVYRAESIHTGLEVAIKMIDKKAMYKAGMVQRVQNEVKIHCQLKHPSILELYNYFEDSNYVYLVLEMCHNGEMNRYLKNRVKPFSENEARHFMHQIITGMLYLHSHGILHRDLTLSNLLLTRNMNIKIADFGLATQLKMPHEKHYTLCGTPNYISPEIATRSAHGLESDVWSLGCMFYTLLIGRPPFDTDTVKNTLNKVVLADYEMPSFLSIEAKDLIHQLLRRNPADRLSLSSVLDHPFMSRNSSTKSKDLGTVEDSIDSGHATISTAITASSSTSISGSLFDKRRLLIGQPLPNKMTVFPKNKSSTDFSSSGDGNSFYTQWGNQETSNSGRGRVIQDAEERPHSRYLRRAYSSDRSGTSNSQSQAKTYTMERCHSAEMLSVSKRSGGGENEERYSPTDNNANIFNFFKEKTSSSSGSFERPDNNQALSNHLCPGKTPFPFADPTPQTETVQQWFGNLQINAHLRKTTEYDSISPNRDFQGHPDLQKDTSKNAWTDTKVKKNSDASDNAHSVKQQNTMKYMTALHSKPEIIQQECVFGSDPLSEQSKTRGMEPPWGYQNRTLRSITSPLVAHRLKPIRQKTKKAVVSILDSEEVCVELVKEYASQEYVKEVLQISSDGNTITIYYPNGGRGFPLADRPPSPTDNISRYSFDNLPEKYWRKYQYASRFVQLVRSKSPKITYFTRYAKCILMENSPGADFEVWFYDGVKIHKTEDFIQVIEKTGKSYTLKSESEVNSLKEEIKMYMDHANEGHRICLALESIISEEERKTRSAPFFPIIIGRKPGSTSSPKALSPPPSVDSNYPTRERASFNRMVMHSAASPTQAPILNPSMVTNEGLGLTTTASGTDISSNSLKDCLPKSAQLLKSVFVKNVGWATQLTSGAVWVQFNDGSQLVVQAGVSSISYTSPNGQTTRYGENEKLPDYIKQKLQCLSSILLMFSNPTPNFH
Procedure, shortened: as §1

T2 sequence (Q9Y243 whole entry, the tested form may be a part): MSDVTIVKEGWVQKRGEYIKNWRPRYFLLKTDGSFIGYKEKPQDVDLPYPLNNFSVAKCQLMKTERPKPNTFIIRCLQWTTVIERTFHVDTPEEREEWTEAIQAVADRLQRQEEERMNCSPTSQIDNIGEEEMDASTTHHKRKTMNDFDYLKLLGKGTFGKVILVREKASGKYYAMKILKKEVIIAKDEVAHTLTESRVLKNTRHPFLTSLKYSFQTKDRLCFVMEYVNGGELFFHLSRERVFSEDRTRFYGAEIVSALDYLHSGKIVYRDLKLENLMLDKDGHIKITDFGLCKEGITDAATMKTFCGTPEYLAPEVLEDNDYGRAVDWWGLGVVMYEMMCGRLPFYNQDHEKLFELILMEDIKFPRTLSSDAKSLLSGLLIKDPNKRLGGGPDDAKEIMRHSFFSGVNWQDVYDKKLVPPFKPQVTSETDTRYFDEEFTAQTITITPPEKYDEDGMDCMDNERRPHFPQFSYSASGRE

Row | Structure (SMILES) | dTm [1] | dTm [2] | dTm [3] | dTm [4]
1 | Cc1ccc(C(=O)Nc2ccc(CN3CCN(C)CC3)c(C(F)(F)F)c2)cc1C#Cc1c[nH]c2ncnc(N3CCOCC3)c12 [Compound 1] | 3.23 K | -0.0373 K | 0.41 K | 6.48 K
2 | O=C(Nc1ccc(F)cc1)C1(C(=O)Nc2cccc(-c3c[nH]c4ncnc(N5CCOCC5)c34)c2)CC1 [Compound 2] | 2.38 K | 0.65 K | -2.28 K | 8.51 K
3 | O=C(Nc1cccc(-c2c[nH]c3ncnc(N4CCOCC4)c23)c1)c1cccn(-c2ccc(F)cc2)c1=O [Compound 4] | 5.74 K | -0.17 K | 0.10 K | 8.52 K
4 | Cc1cc(NC(=O)C2(C(=O)Nc3ccc(F)cc3)CC2)cc(-c2c[nH]c3ncnc(N4CCOCC4)c23)c1 [Compound 6] | 1.86 K | -0.13 K | -0.19 K | 7.27 K
5 | O=C(Nc1cccc(-c2c[nH]c3ncnc(N4CCOCC4)c23)c1)C1(C(=O)Nc2cccc3c2CCC3)CC1 [Compound 11] | 2.34 K | -0.39 K | -0.88 K | 7.44 K
6 | O=C(Nc1ccccc1)C1(C(=O)Nc2cccc(-c3c[nH]c4ncnc(N5CCOCC5)c34)c2)CC1 [Compound 12] | 2.64 K | 0.16 K | 0.71 K | 6.79 K
7 | O=C(Nc1ccc(Cl)cc1)C1(C(=O)Nc2cccc(-c3c[nH]c4ncnc(N5CCOCC5)c34)c2)CC1 [Compound 13] | 3.45 K | 0.45 K | 0.52 K | 9.01 K
8 | Cc1ccc(NC(=O)C2(C(=O)Nc3cccc(-c4c[nH]c5ncnc(N6CCOCC6)c45)c3)CC2)cc1 [Compound 14] | 0.92 K | 0.32 K | 0.43 K | 7.55 K
9 | CCc1ccc(NC(=O)C2(C(=O)Nc3cccc(-c4c[nH]c5ncnc(N6CCOCC6)c45)c3)CC2)cc1 [Compound 15] | 0.37 K | -0.80 K | 0.54 K | 9.77 K
10 | COc1ccc(NC(=O)C2(C(=O)Nc3cccc(-c4c[nH]c5ncnc(N6CCOCC6)c45)c3)CC2)cc1 [Compound 16] | -1.03 K | 0.25 K | -0.09 K | 4.53 K
11 | O=C(Nc1cccc(-c2c[nH]c3ncnc(N4CCOCC4)c23)c1)C1(C(=O)Nc2ccc(F)c(F)c2)CC1 [Compound 17] | 1.34 K | 0.71 K | 0.00857 K | 9.62 K
12 | O=C(Nc1cccc(-c2c[nH]c3ncnc(N4CCOCC4)c23)c1)C1(C(=O)Nc2ccc(F)c(Cl)c2)CC1 [Compound 18] | 1.59 K | 1.04 K | -1.54 K | 7.28 K
13 | O=C(Nc1cccc(-c2c[nH]c3ncnc(N4CCOCC4)c23)c1)C1(C(=O)Nc2ccc(F)c(Br)c2)CC1 [Compound 19] | 2.86 K | -0.15 K | -0.61 K | 0.00 K
14 | Cc1cc(NC(=O)C2(C(=O)Nc3cccc(-c4c[nH]c5ncnc(N6CCOCC6)c45)c3)CC2)ccc1F [Compound 20] | 2.15 K | 0.62 K | 0.44 K | 12.28 K
15 | COc1cc(NC(=O)C2(C(=O)Nc3cccc(-c4c[nH]c5ncnc(N6CCOCC6)c45)c3)CC2)ccc1F [Compound 21] | 0.18 K | 0.58 K | -0.64 K | 10.46 K
16 | CC(C)(C)c1cccc(NC(=O)C2(C(=O)Nc3cccc(-c4c[nH]c5ncnc(N6CCOCC6)c45)c3)CC2)c1 [Compound 22] | 2.25 K | 0.15 K | -2.18 K | 9.02 K
17 | O=C(Nc1cccc(-c2c[nH]c3ncnc(N4CCOCC4)c23)c1)C1(C(=O)Nc2ccc(F)cc2F)CC1 [Compound 23] | 0.52 K | 0.68 K | -0.59 K | 7.20 K
18 | Cc1cc(F)ccc1NC(=O)C1(C(=O)Nc2cccc(-c3c[nH]c4ncnc(N5CCOCC5)c34)c2)CC1 [Compound 24] | 0.66 K | 0.50 K | -0.26 K | 7.17 K
19 | O=C(Nc1cccc(-c2c[nH]c3ncnc(N4CCOCC4)c23)c1)C1(C(=O)Nc2cc(Br)c(F)cc2F)CC1 [Compound 25] | 1.84 K | -0.48 K | -1.04 K | 0.00 K
20 | O=C(Nc1cccc(-c2c[nH]c3ncnc(N4CCOCC4)c23)c1)C1(C(=O)Nc2ccc(F)c(Br)c2F)CC1 [Compound 26] | 1.09 K | -0.00683 K | -0.69 K | 5.97 K
21 | O=C(Nc1cc(F)cc(Br)c1)C1(C(=O)Nc2cccc(-c3c[nH]c4ncnc(N5CCOCC5)c34)c2)CC1 [Compound 27] | 0.27 K | 0.53 K | -2.72 K | 0.00 K
22 | CC(C)(C)c1cc(NC(=O)Nc2cccc(-c3c[nH]c4ncnc(N5CCOCC5)c34)c2)n(-c2ccc3ncccc3c2)n1 [Compound 28] | 5.15 K | 0.49 K | 0.83 K | 3.84 K
23 | Cc1ccc(C(=O)Nc2ccc(CN3CCN(C)CC3)c(C(F)(F)F)c2)cc1C#Cc1cnc2cccnn12 [Ponatinib, reference compound] | 4.58 K | – | -0.27 K | –
24 | CNC(=O)c1cc(Oc2ccc(NC(=O)Nc3cc(C(C)(C)C)nn3-c3ccc4ncccc4c3)c(F)c2)ccn1 [Rebastinib, reference compound] | – | -0.41 K | 0.77 K | 6.17 K
25 | CN[C@@H]1C[C@H]2O[C@@](C)([C@@H]1OC)n1c3ccccc3c3c4c(c5c6ccccc6n2c5c31)C(=O)NC4 [Staurosporine] | 6.40 K | – | – | 19.68 K
